Measured values: patent US20140301961A1, “COMPOUNDS WITH ANTI-AGING ACTIVITIES” (priority 2011, published 2014)
“Also recorded” adds a separate entry of the source.

What was measured:
[1] = test system: interleukin-6 [IL-6]; assay: Interleukin-6 production in PMA-stimulated dermal fibroblasts; format: cell-based, human; conditions: PMA 10 nM (FIG. 7)
Protocol: Human dermal fibroblast cell cultures were prepared according to Example 3.1. To induce inflammation in the cells PMA (phorbol myristate acetate) (ex. Sigma) was used at a concentration of 10 nM. […] The cells were stimulated for 24 h and the culture supernatant was collected and stored at −20° C. until further analysis
(§1) Experimental method as outlined in Example 3.1 was modified in order to analyze IL-6 levels extracted from dermal fibroblasts stimulated for 6 days with all-trans retinoic acid, retinol, arachidonic acid, β-aescin, and […] (ethyl ester) at a range of concentrations. Experiments were performed in duplicates.

[2] = test system: arachidonate 5-lipoxygenase (ALOX5); assay: Affymetrix gene array on skin explants, ALOX5; format: cell-based, human; conditions: topical, 24 hours
Description: (§2) Subcutaneous fat from full thickness skin, obtained from surgical waste material from breast reduction procedures, was removed with a scalpel. Three healthy Caucasian female donors were used for this study. The female donors differed from those of the skin-treatment study outlined previously 8 mm punch biopsies were taken from the skin (and these biopsies are now referred to as skin explants). Skin explants were put on Milipore cell culture inserts (12 mm diameter). Inserts containing skin explants were put in 6-well plates (one insert/well) and 1 mL of supplemented keratinocyte medium (ex Cascade Biologics) was added to each well. A tretinoin-containing cream (Aberela® ex. Janssen): 0.05% tretinoin in the cream, was applied topically to each explant (5 μL/cm^2) using a positive displacement pipette. A placebo cream without tretinoin was used as a control. The skin explants were incubated with tretinoin for 24 hours at 37° C. in 5% CO2-humidified air.
(§3) RNA concentration was measured with ND-1000 spectrophotometer (ex. NanoDrop Technologies) and RNA quality was evaluated using the Agilent 2100 bioanalyzer system (ex. Agilent Technologies). 250 nanograms of total RNA from each skin or skin explant sample was used to prepare biotinylated fragmented cRNA according to the GeneChip® 3′IVT Express Kit Manual (PN702646 Rev 1, ex. Affymetrix Inc.). Affymetrix GeneChip® expression arrays (Human Genome U133 Plus 2.0) were hybridized for 16 hours in a 45° C. incubator, rotated at 60 rpm. According to the GeneChip Expression Wash, Stain and Scan Manual (PN 702731 Rev 2, ex. Affymetrix Inc.) the arrays were washed and stained using the Fluidics Station 450 and scanned using the GeneChip® Scanner 3000 7G.
(§4) Analysis of the gene expression data was carried out in the statistical computing language R (http://www.r-project.org) using packages available from the Bioconductor project (www.bioconductor.org). The raw data was normalized using the robust multi-array average (RMA) method. In order to search for differentially expressed genes between the X samples and the Y samples group an empirical Bayes moderated t-test was then applied using the ‘limma’ package.
(§5) Skin explants were obtained as detailed in Example 3.1.

[3] = test system: Fibroblast growth factor (FGF); assay: FGF production in human skin explants; format: cell-based; conditions: topical (FIG. 13)
Protocol: (§6) Full thickness skin from surgical waste material from breast reductions was collected. Subcutaneous fat was removed with a scalpel. 8 mm punch biopsies was taken from the skin and referred to as skin explants. Thereafter, the explants were put on Millipore cell culture inserts (12 mm in diameter). Inserts containing skin explants were put in 6-well plate (1 insert/well) and 1 mL of supplemented keratinocyte medium (Cascade Biologics) was added to each well to allow survival and nutrition of the explants. […] Supernatants were thereafter collected and analyzed for GM-CSF production.
Human Skin Explants were Obtained and Treated as Described in Example 7.3.
The methodology described in Example 3.1 was adapted in order analyze FGF production in skin explants.

[4] = test system: prostaglandin-endoperoxide synthase 1 (PTGS1); assay: Affymetrix gene array on skin explants, PTGS1; format: cell-based, human; conditions: topical, 24 hours
Description: as §2, §3, §4, §5

[5] = test system: GM-CSF; assay: GM-CSF production in PMA-stimulated human dermal fibroblasts; format: cell-based; conditions: PMA 10 nM (FIG. 8)
Protocol: Cell Cultures were Prepared According to Example 3.1
To induce inflammation in the cells PMA (phorbol myristate acetate) (ex. Sigma) was used at a concentration of 10 nM. […] The cells were stimulated for 24 h and the culture supernatant was collected and stored at −20° C. until further analysis.
as §1, with “GM-CSGF” for “IL-6”, “in human dermals” for “extracted from dermal”, “stimulated” for “stimulated for 6 days”

[6] = test system: Keratin 1/10; assay: Keratin 1/10 production in human normal keratinocytes; format: cell-based; conditions: for synthesis of Keratin 1/10: human normal keratinocytes (FIG. 15)
Protocol: (§7) Keratinocytes were cultured in commercially available keratinocyte medium M154 (Cascade Biologics/Invitrogen) # M154500 with a final calcium […]. Supplements were added meeting following final concentrations of growth factors; bovine pituitary extract (BPE), 0.2% v/v·bovine insulin, 5 μg/ml·hydrocortisone, 0.18 μg/ml·bovine transferrin, 5 μg/ml·human epidermal growth factor, 0.2 ng/ml.
Medium was changed every other day. Cells were grown to 80% confluence prior stimulation with compounds. Experiments were performed in 24-well plates. The cells were treated with individual compounds of the invention for 6 days. After 3 days the medium was refreshed. A source of calcium ions was used as a positive control. After 6 days tissue culture medium was stored in −20° C. until analysis.
Cells were cultured as described in Example 5.1. and the methodology described in Example 3.1 was adapted in order analyze keratin 1/10 production.

[7] = test system: tachykinin, precursor 1 (TAC1); assay: Affymetrix gene array on skin explants, TAC1; format: cell-based, human; conditions: topical, 24 hours
Description: as §2, §3, §4, §5

[8] = test system: GM-CSF; assay: UV-induced GM-CSF expression in skin explants; format: cell-based, human; conditions: topical 1% w/w solution in propylene glycol, 120 mJ/cm^2 UVA and UVB (FIG. 9)
Protocol: as §6

[9] = test system: steroid 5 alpha-reductase 3 (SRD5A3); assay: Affymetrix gene array on skin explants, SRD5A3; format: cell-based, human; conditions: topical, 24 hours
Description: as §2, §3, §4, §5

[10] = test system: Kallikrein 8; assay: Kallikrein 8 ELISA in human normal keratinocytes; format: cell-based; conditions: 4 days stimulation (FIG. 14)
Protocol: as §7
Keratinocytes used for Kallikrein 8 experiments were cultured as described in example 2.1. Experiments were performed in monolayers with 80% confluence. The cells were stimulated for 4 days prior to kallikrein 8 analysis with the different actives and then culture supernatant were collected and stored in −20° C. until further analysis. Kallikrein 8 production was analysed in cell culture supernatants from stimulated keratinocytes using a ELISA assay specific for Kallikrein 8 (Uscn Life Science Inc, E90690Hu). Results were compared with cell culture supernatants from DMSO vehicle treated cells. The assays utilized a 96-well microplate format and were processed according to the manufacturer's protocol, including generation of a standard curve prepared in background assay diluents. Absorbance of the assay dye was read at a Synergy HT plate reader. Values that fell within the linear range of the calibration assay were accepted. Quantities were determined by comparison to standard curves obtained for KLK8.

Structure (SMILES)	interleukin-6 production [1]	ALOX5 gene expression [2] [log 2−ratio]	FGF production [3]	PTGS1 gene expression [4] [log 2−ratio]	GM-CSF production [5]	synthesis of Keratin 1/10 ([6]; 1.2 microM)	TAC1 gene expression [7] [log 2−ratio]	UV-induced expression of GM-CSF [8]	SRD5A3 gene expression [9] [log 2−ratio]	synthesis of kallikrein 8 [10]	production of Keratin 1/10 ([6]; concentration not given)	FGF production ([3]; listed as naringenin)	synthesis of Keratin 1/10 ([6]; 150 microM)
C=C1C[C@]23C[C@@]1(O)CC[C@H]2[C@@]12C=C[C@H](O)[C@@](C)(C(=O)O1)[C@@H]2[C@@H]3C(=O)O [Gibberellic acid, (3S,3aS,4S,4aS,7S,9aR,9bR,12S)-7,12-dihydroxy-3-methyl-6-methylene-2-oxoperhydro-4a,7-methano-9b,3-propenoazuleno[1,2-b]furan-4-carboxylic acid]	inhibit interleukin-6 production	−1.01	higher FGF production than retinoic acid; also recorded: Stimulation of FGF production	−1.11	inhibition of GM-CSF production	significant increase in the synthesis of Keratin 1/10	−0.62	suppression of UV-induced expression of GM-CSF	−0.75	significant increase in the synthesis of kallikrein 8	–	–	–
CC(=O)N[C@@H](CC(=O)O)C(=O)O [N-Acetyl aspartic acid, (2S)-2-Acetamidobutanedioic acid]	inhibit interleukin-6 production	0.15	higher FGF production than retinoic acid; also recorded: Stimulation of FGF production	−0.20	inhibition of GM-CSF production	–	−1.23	suppression of UV-induced expression of GM-CSF	−1.54	significant increase in the synthesis of kallikrein 8	stimulate production of Keratin 1/10	–	–
O=C1C[C@@H](c2ccc(O)cc2)Oc2cc(O)cc(O)c21 [Naringenin, (S)-2,3-Dihydro-5,7-dihydroxy-2-(4-hydroxyphenyl)-4H-1-benzopyran-4-one]	inhibit interleukin-6 production	−0.69	higher FGF production than retinoic acid	−3.51	inhibition of GM-CSF production	–	−2.78	suppression of UV-induced expression of GM-CSF	1.25	significant increase in the synthesis of kallikrein 8	–	Stimulation of FGF production	significant increase in the synthesis of Keratin 1/10
